Patent US20260098017A1, “NOVEL AROMATIC RING DERIVATIVE CONTAINING AMIDE SUBSTITUTION AND USE THEREOF” (TIANJIN PHARMACEUTICAL BIOTECHNOLOGY CO., LTD., priority 2022, published 2026)
Marks after values point to notes of the source that are not given here.

Assays:
TYK2 JH2 pseudokinase = TYK2 JH2 pseudokinase (Homo sapiens, UniProt P29597); experiment: TYK2 JH2 enzyme binding assay in vitro (TR-FRET)
Experimental: Instrumentation: Envision microplate reader (PerkinElmer), ECHO550 (LABCYTE).
Method: the inhibitory effects of compounds on TYK2 JH2 pseudokinase was tested using time-resolved fluorescence resonance energy transfer (TR-FRET) method.
Procedure: compounds were prepared into 10 mM stock solutions using DMSO, which were further diluted into compound dilutions (200×) with different concentration gradients in DMSO, and the compound dilutions (200×) were transferred to a 384-well assay plate using an Echo instrument. […] TYK2 JH2 pseudokinase, Tb antibody, and Tracer working solutions were prepared using the dilution buffer, respectively. 5 uL of TYK2 JH2 pseudokinase working solution (final concentration 0.5 nM) was added to a 384-well assay plate, and centrifuged at 1000 rpm for 30 s. 5 uL of Tb antibody (final concentration 1×) was added to the 384-well assay plate, and centrifuged at 1000 rpm for 30 s. 5 uL of Tracer (final concentration 0.5 nM) was added to the 384-well assay plate, and centrifuged at 1000 rpm for 30 s. Incubation was performed at room temperature for 60 min, and then at 4° C. overnight.
Data Analysis: XLfit, a software developed by IDBS and integrated into the Microsoft Excel environment, was used to process and analyze the test data.

JAK1 JH2 pseudokinase = JAK1 JH2 pseudokinase (Homo sapiens, UniProt P23458); experiment: JAK1 JH2 enzyme binding assay in vitro (TR-FRET); details: read-out: JAK 1 JH2 IC50
Experimental: Instrumentation: Envision microplate reader (PerkinElmer), Echo (LABCYTE)
Method: in this experiment, the inhibitory effects of compounds on JAK1 JH2 pseudokinase was tested using time-resolved fluorescence resonance energy transfer (TR-FRET) method.
Procedure: compounds were prepared into 10 mM stock solutions using DMSO, which were further diluted into compound dilutions with different concentration gradients in DMSO, and the compound dilutions with 200× final concentration were transferred to a 384-well assay plate using an Echo instrument. The preparation of the following 1× assay working solution: HEPES pH7.5 at a final concentration of 20 mM, MgCl2 at a final concentration of 10 mM, Brij-35 at a final concentration of 0.015%, DTT at a final concentration of 2 mM, BSA at a final concentration of 50 ug/mL. JAK1 JH2 pseudokinase with 3× final concentration, Tb antibody and Tracer were prepared using their respective 1× working solution. 5 uL of JAK1 JH2 pseudokinase was added to a 384-well assay plate, and centrifuged at 1000 rpm for 30 s. 5 uL of Tb antibody was added to the 384-well assay plate, and centrifuged at 1000 rpm for 30 s. 5 uL of Tracer was added to the 384-well assay plate, and centrifuged at 1000 rpm for 30 s. Incubation was performed at room temperature for 60 min, and then at 4° C. overnight. Finally, the 495 nm/520 nm fluorescence signal ratio was measured using the Envision microplate reader (PerkinElmer).
Data Analysis: XLfit, a software developed by IDBS and integrated into the Microsoft Excel environment, was used to process and analyze the test data. […] Thereafter, the concentration and corresponding inhibition rate data were imported into the XLfit software, and the Dose Response One Site 205 model within the software was employed to fit the inhibition rate-concentration curve by four-parameter method, and the IC50 value of the compound was calculated.

[1] = test system: imiquimod-induced mouse psoriasis-like model; experiment: Imiquimod-induced mouse psoriasis-like model (PASI score); format: in vivo
Source text: The efficacy of the compounds according to the present invention in an imiquimod-induced mouse psoriasis-like model could be assessed using the following method:
Sample preparation: with reference to the preparation of commercially available Benvitimod cream. The compound (the compound of Example 3), the oil phase (hexadecanol, vaseline, liquid paraffin, and glyceryl mono- and distearate), the aqueous phase (propylene glycol, Tween 80, and water), and the appropriate additive (ethylparaben) were mixed, and subjected to vacuum emulsification to prepare a 1% cream sample.
A test site on the back of the animal was shaved to expose an area measuring of 2×3 cm^2. Imiquimod ointment was continuously applied to the back skin of the mice for 6 days to establish a mouse psoriasis model. From day 1 to day 6, various groups of animals were administered respectively according to the experimental protocol.
At day 7, the severity of skin inflammation was assessed and scored using a 5-point scale (0-4) (PASI score):
Skin thickness: 0: the skin was smooth without wrinkles; 1: the skin at the edge of the drug application area had slight wrinkles; 2: the skin in the drug application area all had slight wrinkles; 3: the degree of wrinkles in the drug application area was further deepened; and 4: on the basis of the score of 3, the mouse had the conditions of weight loss or poor state and the like. […]

Chain of JAK1 JH2 pseudokinase (P23458 583-855 limits assumed): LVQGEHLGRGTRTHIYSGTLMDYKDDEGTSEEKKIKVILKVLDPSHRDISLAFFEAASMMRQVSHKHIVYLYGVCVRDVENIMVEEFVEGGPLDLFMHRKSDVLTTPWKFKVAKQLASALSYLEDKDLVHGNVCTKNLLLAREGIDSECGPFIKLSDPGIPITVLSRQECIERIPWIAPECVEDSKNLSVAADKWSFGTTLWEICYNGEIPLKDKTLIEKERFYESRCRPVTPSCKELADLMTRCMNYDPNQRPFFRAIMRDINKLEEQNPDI
Chain of TYK2 JH2 pseudokinase (P29597 589-875 limits assumed): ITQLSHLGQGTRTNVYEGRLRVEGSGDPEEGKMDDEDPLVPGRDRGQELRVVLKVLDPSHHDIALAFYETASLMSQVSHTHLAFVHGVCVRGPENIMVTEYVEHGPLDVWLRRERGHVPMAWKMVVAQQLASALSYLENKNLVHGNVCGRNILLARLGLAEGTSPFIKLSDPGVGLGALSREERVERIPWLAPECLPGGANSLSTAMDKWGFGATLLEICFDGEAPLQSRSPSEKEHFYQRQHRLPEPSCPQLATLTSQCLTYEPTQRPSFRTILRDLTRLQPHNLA

[2H]C([2H])([2H])NC(=O)c1nnc(NC(=O)C2CC2)cc1Nc1cccc(C(=O)Nc2cccc(C)c2)c1OC [Example 3] was tested, and the IC50 (TYK2 JH2 pseudokinase) was 0.274 nM, the IC50 (JAK1 JH2 pseudokinase) was 9.74 nM and the “Percentage reduction in PASI score %” value ([1]; day 7, 1% cream, 100 mg, topical, qd, day 1 to 6) was 40.7*** %. For the same molecule, the “Improvement of psoriasis symptoms” value ([1]; topical cream, compared with the model group) was “effectively improved psoriasis symptoms”.
